Measurements from patent US20240335541A1, “NANOMATERIALS COMPRISING DIAMINES” (Beam Therapeutics Inc., priority 2021, published 2024).

What was measured:
[1] = LNP hydrodynamic diameter and polydispersity by DLS (Example 1 LNPs); type: physicochemical; conditions: LNPs prepared according to Example 1, total lipid to NA mass ratio 11.7
Method: LNPs were prepared with a total lipid to NA mass ratio of 11.7. LNPs were formed by microfluidic mixing of the lipid and NA solutions using a Precision Nanosystems NanoAssemblr Spark or Benchtop series Instruments, according to the manufacturers protocol. A ratio of aqueous to organic solvent of approximately 2:1 or 3:1 was maintained during mixing using differential flow rates. After mixing, LNPs were collected, diluted in PBS (approximately 1:1 v/v). Further buffer exchange was conducted using dialysis in PBS at 4° C. for 4 to 24 hours against a 20 kDa filter. After this initial dialysis, each individual LNP preparation was characterized via dynamic light scattering (DLS) to measure the size (e.g., diameter) and polydispersity. In addition, pKa of a subpopulation of LNPs was measured via a 2-(p-toluidino)-6-napthalene sulfonic acid (TNS) assay. LNPs falling within specific diameter and polydispersity ranges are pooled, and further dialyzed against phosphate buffer saline (PBS) at 4° C. for 1 to 4 hours against a 100 kDa dialysis cassette. After the second dialysis, LNPs were sterile filtered using […] filter and stored at 4° C. for further use.
DLS-LNP hydrodynamic diameter and polydispersity index (PDI) were measured using high throughput dynamic light scattering (DLS) (DynaPro plate reader II, Wyatt). LNPs were diluted 1×PBS to an appropriate concentration and analyzed.
Lipid nanoparticle components were dissolved in 100% ethanol at specified lipid component molar ratios. Nucleic acid (NA) cargo was dissolved in 10 mM citrate, 100 mM NaCl, pH 4.0, resulting in a concentration of NA cargo of approximately 0.22 mg/mL. In some embodiments, NA cargos included both a functional NA and a reporter DNA barcode mixed at mass ratios of 1:10 to 10:1 functional NA to barcode. LNPs were formulated with a total lipid to NA mass ratio of 11.7. LNPs were formed by microfluidic mixing of the lipid and NA solutions using a Precision Nanosystems NanoAssemblr Spark or Benchtop series Instruments, according to the manufacturer's protocol. A 2:1 or 3:1 ratio of aqueous to organic solvent was maintained during mixing using differential flow rates. After mixing, LNPs were collected, diluted in PBS (approximately 1:1 v/v), and further buffer exchange was conducted using dialysis in PBS at 4° C. for 8 to 24 hours against a 20 kDa filter. After this initial dialysis, each individual LNP formulation was characterized via DLS to measure the size and polydispersity, and the pKa of a subpopulation of LNPs is measured via TNS assay. After dialysis, LNPs were sterile filtered using 0.22 micron sterile filter and stored at 4° C. for further use.
LNP hydrodynamic diameter and polydispersity index (PDI) were measured using high throughput dynamic light scattering (DLS) (DynaPro plate reader II, Wyatt). LNPs were diluted 1×PBS to an appropriate concentration and analyzed.

[2] = tested on: human ALAS1 target site; test: In vivo base editing with LNP carrying adenine base editor mRNA and sgRNA, targeted deep sequencing; conditions: 3.0 mg/kg dose IV; NBSGW mice engrafted with human CD34+ cells; four to six days post-dose
Method: Exemplary LNP preparations were selected to determine each preparation's ability to perform base editing in a NBSGW mouse model as described herein.
Lipid nanoparticle components were dissolved in 100% ethanol at specified lipid component molar ratios. mRNA encoding an adenine base editor and a chemically-modified sgRNA were dissolved at a mass ratio of 1:1 in 10 mM citrate, pH 3.0, resulting in a concentration of NA cargo of approximately 0.2 mg/mL.
LNP preparations were formulated with molar ratios of 50% Ionizable Lipid: 38.5% Cholesterol: 1.5% PEG2000-DMG: 10% DSPC total lipid to NA mass ratio of 19 to 1.
LNP preparations were formed by microfluidic mixing of the lipid and NA solutions using a Precision Nanosystems NanoAssemblr Spark series Instruments, according to the manufacturer's protocol.
A 3:1 ratio of aqueous to organic solvent was maintained during mixing using differential flow rates. […] After this initial dialysis, each individual LNP preparation was characterized via dynamic light scattering (DLS) to measure size and polydispersity. pKa of a subpopulation of LNP preparations was measured via TNS assay. […]
Age-matched mice were also used to administer vehicle (1×PBS) via tail vein injection as a control. […] Base editing was determined by performing targeted deep sequencing analysis at the human ALAS1 target site using extracted genomic DNA. […]

[3] = LNP encapsulation efficiency, unlysed vs lysed LNPs, Qubit kit (Example 1 LNPs); type: physicochemical; conditions: LNPs prepared according to Example 1; total lipid to NA mass ratio 11.7
Method: Concentration of NA was determined by Qubit microRNA kit (for siRNA) or HS RNA kit (for mRNA) per manufacturer's instructions. Encapsulation efficiency was determined by measuring nucleic acid concentration in unlysed and lysed LNPs. Encapsulation efficiency was determined by measuring unlysed and lysed LNPs.

[4] = LNP hydrodynamic diameter and PDI by DLS (Example 16 LNPs, Stunner); type: physicochemical; conditions: Example 16 LNPs: 47.5% Ionizable Lipid: 40% cholesterol: 2.5% PEG-2000 DMG: 10% DPSC, N/P 4-8
Method: (§1) LNPs were prepared with 47.5% Ionizable Lipid (e.g., a compound provided herein): 40% cholesterol: 2.5% PEG-2000 DMG: 10% DPSC and an N/P ratio range of 4-8. LNPs were formed by microfluidic mixing of the lipid and NA solutions using a Precision Nanosystems NanoAssemblr Spark or Benchtop series Instruments, according to the manufacturer's protocol. A ratio of aqueous to organic solvent of approximately 2:1 or 3:1 was maintained during mixing using differential flow rates. After mixing, LNPs were collected, diluted in phosphate buffer saline (PBS) or Tris-buffered saline (TBS) (approximately 1:1 v/v). Further buffer exchange was conducted using dialysis in PBS or TBS at 4° C. for 4 to 24 hours against a 20 kDa filter. After this initial dialysis, each individual LNP preparation was characterized via dynamic light scattering (DLS) to measure the size (e.g., diameter) and polydispersity. LNPs falling within specific diameter and polydispersity ranges were pooled, and further dialyzed against PBS or TBS at 4° C. for 1 to 4 hours against a 100 kDa dialysis cassette. After the second dialysis, LNPs were sterile filtered using 0.22 μm filter and stored at 4° C. for further use.
LNP hydrodynamic diameter and polydispersity index (PDI) were measured using high throughput dynamic light scattering (DLS) (Stunner, Unchained Labs). LNPs were diluted 1×TBS or PBS to an appropriate concentration and analyzed.

[5] = LNP encapsulation efficiency by Ribogreen assay (Example 16 LNPs); type: physicochemical; conditions: Example 16 LNPs: 47.5% Ionizable Lipid: 40% cholesterol: 2.5% PEG-2000 DMG: 10% DPSC, N/P 4-8
Method: as §1
RNA concentration and encapsulation efficiency were determined by Ribogreen assay (BioTek Synergy LX plate reader).

Mean Diameter [1] | Mean PDI [1] | Mean Encapsulation Efficiency [3] | Mean Diameter [4] | Mean PDI [4] | Mean Encapsulation Efficiency [5] | Compound | base editing in bulk bone marrow [2]
93.7 nm | 14.3% | 95.9% | 86.2 nm | 0.10 | 75.4% | CC/C=C\CCCCOC(CCC(=O)OCCCCCCCN(CCCCCCCOC(=O)CCC(OCCCC/C=C\CC)OCCCC/C=C\CC)CCN(CCO)CCCCCCCC(=O)OCCCCCCCCC)OCCCC/C=C\CC [Example 7-13, ((2-((2-hydroxyethyl)(8-(nonyloxy)-8-oxooctyl)amino)ethyl)azanediyl)bis(heptane-7,1-diyl) bis(4,4-bis(((Z)-oct-5-en-1-yl)oxy)butanoate)] | 
106.9 nm | 15.4% | 97.5% | 95.1 nm | 0.10 | 66.1% | CC/C=C\CCCCOC(CCC(=O)OCCCCCCCN(CCCCCCCOC(=O)CCC(OCCCC/C=C\CC)OCCCC/C=C\CC)CCCN(CCO)CCCCCCCC(=O)OCCCCCCCCC)OCCCC/C=C\CC [Example 7-4, ((3-((2-hydroxyethyl)(8-(nonyloxy)-8-oxooctyl)amino)propyl)azanediyl)bis(heptane-7,1-diyl) bis(4,4-bis(((Z)-oct-5-en-1-yl)oxy)butanoate)] | 
89.3 nm | 14.9% | 94.7% | 74.4 nm | 0.11 | 76.5% | CC/C=C\CCCCOC(CCC(=O)OCCCCCCN(CCCCCCOC(=O)CCC(OCCCC/C=C\CC)OCCCC/C=C\CC)CCN(CCO)CCCCCCCC(=O)OCCCCCCCCC)OCCCC/C=C\CC [Example 7-12, ((2-((2-hydroxyethyl)(8-(nonyloxy)-8-oxooctyl)amino)ethyl)azanediyl)bis(hexane-6,1-diyl) bis(4,4-bis(((Z)-oct-5-en-1-yl)oxy)butanoate)] | 
77.9 nm | 9.2% | 95.6% | 77.3 nm | 0.10 | 70.1% | CC/C=C\CCCCOC(CCC(=O)OCCCCCCN(CCO)CCN(CCCCCCCCCOC(=O)C(CCCC)CCCCCC)CCCCCCCCCOC(=O)C(CCCC)CCCCCC)OCCCC/C=C\CC (stereo not shown) [Example 7-15] | 

Compound | Mean Diameter [1] | Mean PDI [1] | Mean Encapsulation Efficiency [3] | Mean Diameter [4] | Mean PDI [4] | Mean Encapsulation Efficiency [5] | base editing in bulk bone marrow [2]
CC/C=C\CCCCOC(CCC(=O)OCCCCCCCN(CCO)CCCN(CCCCCCCOC(=O)CCC(OCCCC/C=C\CC)OCCCC/C=C\CC)CCCCCCCOC(=O)CCC(OCCCC/C=C\CC)OCCCC/C=C\CC)OCCCC/C=C\CC [Example 7-2] | 96.1 nm | 10.9% | 96.8% |  |  |  | 2.2%
CC/C=C\CCCCOC(CCC(=O)OCCCCCCN(CCO)CCCN(CCCCCCCCCOC(=O)C(CCCC)CCCCCC)CCCCCCCCCOC(=O)C(CCCC)CCCCCC)OCCCC/C=C\CC (stereo not shown) [Example 7-8] | 165.2 nm | 19.3% | 85.4% | 91.0 nm | 0.11 | 61.1% | 
